Literature values as cited in patent US8821913B2, “Controlled releases system containing temozolomide” (Tasly Holding Group Co., Ltd., priority 2002, dated 2014).
Read-outs that look alike come from different tables or passages of the source.

Assays:
[1] = mouse
[2] = phase I clinical trial

half-life time ([1]; i.p.): 1.13 h
half-life time ([1]; p.o.): 1.29 h
half-life time [2]: 1.8 h
time to reach maximum plasma concentration [2]: ≤ 0.7 h
Structure (SMILES): Cn1nnc2c(C(N)=O)ncn2c1=O [TMZ, Temozolomide]
